From patent US7910723B2, “IG20 splice variants therapeutics for cancer” (The Board of Trustees of the University of Illinois, priority 2006, dated 2011)

Experiments:
DR4 = assay: Association of exogenous MADD with DR4 in HEK293 cells (immunoprecipitation); assay type: cell-based
Procedure: (A) Phosphorylation status of MADD could influence its binding to DR4. HEK293 cells were transfected with wtMADD or MADD mutants. 36 h after transfection, the cells were harvested for immunoprecipitation using an anti-DR4 antibody followed by immunoblotting using an anti-YFP antibody to detect exogenous MADD. The membrane was reprobed with an anti-DR4 antibody to show the protein loading. (B) PI3K can influence the association of exogenous MADD with DR4. HEK293 cells were transfected with wtMADD. Twenty four hours after transfection, the cells were serum starved for 20 h. Further, they were treated with LY (10 μM) for 1 h, IGF-1 (150 ng/ml) for 20 minutes. Immunoprecipitation using an anti-DR4 antibody was followed by immunoblotting using anti-YFP or anti-DR4 antibody. (C) Akt can influence exogenous MADD association with DR4. HEK293 cells were co-transfected with wtMADD along with DN-Akt or the empty vector pcDNA3.1 (pcDNA). Thirty six hours after transfection, the cells were harvested for immunoprecipitation using anti-DR4 antibody followed by immunoblotting with an anti-YFP or an anti-DR4 antibody. (D) PI3K can influence the association of endogenous MADD with DR4. HeLa cells were serum starved for 20 h, then treated with LY (10 μM) for 1 h, IGF-1 (150 ng/ml) for 20 minutes. Immunoprecipitation using an anti-DR4 antibody was followed by immunoblotting with an anti-MADD or an anti-DR4 antibody. (E) Akt can influence the association of endogenous MADD with DR4. HeLa cells were transfected with DN-Akt or pcDNA. Thirty six hours after transfection, the cells were collected for immunoprecipitation using an anti-DR4 antibody followed by immunoblotting with an anti-MADD antibody.
MADD can bind to DR4 and thereby block the activation of the extrinsic apoptotic pathway. […] Stimulation of PI3K by IGF-1 increased, while inhibition by LY reduced, the association between wtMADD and DR4 (FIG. 15B). […] This interaction was reduced in the presence of LY (FIG. 15D) or DN-Akt (FIG. 15E).
Immunoprecipitation. Immunoprecipitations were performed using standard procedures. The samples were precleared with 10% (vol/vol) Protein-A agarose (Roche) for 1 h on a rocking platform. Specific antibodies were added and rocked for 1 h. Immunoprecipitates were captured by incubating with 10% (vol/vol) Protein-A agarose for an hour. The agarose beads were spun down and washed three times with NET/NP40 buffer (150 mM NaCl, 2 mM EDTA, 50 mM Tris-HCl pH 7.5, 0.1% NP-40). The antigens were released and denatured by adding SDS sample buffer. Immunoblots were prepared and analysed as described above.

Akt = Akt (Homo sapiens, UniProt P31749); assay: Phosphorylation of MADD in vitro by Akt (kinase assay); assay type: biochemical; settings: GST-tagged recombinant MADD, rAkt, 1 h at 30° C.
Akt, sequence (P31749 whole entry): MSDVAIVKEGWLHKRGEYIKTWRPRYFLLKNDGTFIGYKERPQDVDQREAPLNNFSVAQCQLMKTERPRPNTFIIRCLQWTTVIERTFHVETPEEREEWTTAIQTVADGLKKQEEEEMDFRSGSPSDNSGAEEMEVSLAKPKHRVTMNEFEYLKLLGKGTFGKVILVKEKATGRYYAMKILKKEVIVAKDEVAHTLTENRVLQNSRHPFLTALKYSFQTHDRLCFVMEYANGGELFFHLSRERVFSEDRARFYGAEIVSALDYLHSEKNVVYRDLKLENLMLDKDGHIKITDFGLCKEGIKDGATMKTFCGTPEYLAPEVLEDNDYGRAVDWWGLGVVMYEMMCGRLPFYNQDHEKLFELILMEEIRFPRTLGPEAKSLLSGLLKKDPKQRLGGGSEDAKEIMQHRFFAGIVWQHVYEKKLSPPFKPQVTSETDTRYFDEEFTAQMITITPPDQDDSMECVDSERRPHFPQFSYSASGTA
Procedure: (A) In vitro phosphorylation of rMADD by Akt. GST-wtMADD or -MADD mutants were expressed in bacteria, purified, and then incubated with rAkt and γ[^32P] ATP. After 1 h incubation at 30° C., the products were resolved on SDS-PAGE and ^32P-labeled proteins were visualized by autoradiography. (B) MADD is labeled by [^32P]orthophosphate in vivo. HEK293 cells were transfected with wtMADD or MADD mutant constructs. Twenty-four hours after transfection cells were incubated with 0.3 mCi/ml [32P]orthophosphate for 6 h. MADD was immunoprecipitated with an anti-YFP antibody. The precipitated MADD was separated by SDS-PAGE, transferred to a nitrocellulose membrane, and subjected to autoradiography. Loaded MADD was visualized by staining the same membrane with an anti-YFP antibody. (C) HEK293 cells were transfected with cDNAs for wtMADD or MADD mutants and. 36 h later the cells were harvested for immunoblotting using the anti-phospho-S-70, -T-173 or -T-1041 antibodies. An anti-YFP antibody was used to detect exogenous MADD. (D) HEK293 cells were transfected with wtMADD and 24 hours later cells were serum starved for 20 h. Subsequently, they were treated with LY (10 μM) for 1 h and/or IGF-1 (150 ng/ml) for 20 minutes. The cell lysates were immunoblotted and probed with anti phospho-specific antibodies or an anti-YFP antibody. (E) HEK293 cells were co-transfected with wtMADD along with dominant negative Akt (DN-Akt) or the empty vector pcDNA3.1 (pcDNA). Immunoblots were probed with the anti phospho-specific antibodies or an anti-YFP antibody. (F) HeLa cells were serum starved for 20 h, treated with LY (10 μM) for 1 h, IGF-1 (150 ng/ml) for 20 minutes. Immunoblot was probed with the anti phospho-specific antibodies or an anti-MADD antibody.
To test whether MADD is a substrate of Akt, an in vitro assay was employed to test whether Akt could directly phosphorylate MADD. […] It was tested whether MADD could be phosphorylated in vivo. […] Second, three antibodies that specifically reacted with phosphorylated S70 (anti-phospho S70), T173 (anti-phospho T173) or T1041 (anti-phospho T1041) were raised, respectively. The phosphopeptides, CRQRRMpSLRDDTS (SEQ ID NO: 7) (S-70), GSRSRNSpTLTSL (SEQ ID NO: 8) (T-173), and KRKRSPpTESVNTP (SEQ ID NO: 9) (T-1041) were used to immunize the rabbits. Antisera were depleted of antibodies that recognize non-phosphorylated MADD by negatively selecting the antibodies using an identical non-phosphorylated peptide affinity column. Antibodies in the flow through were tested to ensure that they specifically bind only to the corresponding phosphorylated peptide and not the non-phosphorylated couterpart. […]

HEK293 cells = assay: Cell death of HEK293 cells transfected with MADD constructs, Trypan Blue exclusion; assay type: cell-based; settings: HEK293, 48 h after transfection
Procedure: (A) HEK293 cells were transfected with various MADD constructs. Cell death was determined 48 h after transfection by Trypan Blue exclusion. *p<0.05 vs control. (B) Apoptosis analyzed by Cell Death Detection ELISA. *p<0.05 vs control. (C) Phosphorylatable but not the nonphosphorylatable MADD could rescue cell death upon endogenous MADD knockdown. HeLa cells were infected with the lentivirus harboring MADD shRNAi (RNAi) or its scrambled form (Scrambled RNAi). 24 h after infection, cells were transfected with the constructs of wtMADD-R or MADD3A-R. 48 h after transfection, cell death was determined by Trypan Blue exclusion. *p<0.05 vs RNAi alone. (D) Inhibition of Akt or PI3K could abolish the ability of wtMADD-R to rescue cell death upon endogenous MADD knockdown. HeLa cells were infected with the lentivirus harboring MADD shRNA (RNAi). 24 h after infection, cells were infected with the adenovirus harboring DN-Akt, and transfected with wtMADD-R. LY (10 μM) was added 6 h after transfection. 48 h after transfection, cell death was determined by Trypan Blue exclusion. Data are expressed as the mean±SEM of three independent experiments.
To see whether phosphorylation is required for the prosurvival function of MADD, WT and mutant MADD were tested. […] Since knockdown of endogenous MADD can cause cell death, it was tested whether the wtMADD or MADD3A could rescue this cell death. Only the shRNA resistant wtMADD (wtMADD-R) and not the MADD3A-R could rescue cell death upon endogenous MADD knockdown (FIG. 14C), which was abrogated in the presence either LY or DN-Akt (FIG. 14D). Taken together, the prosurvival function of MADD is dependent upon its phosphorylation by Akt.
Cell culture and viability assay. HEK293, HeLa and PA-1 cells were cultured. Cell death was determined by Trypan Blue exclusion and the numbers of Trypan Blue-positive and -negative cells were counted using a haemocytometer.

ERK1/2 = assay: TNF-α induced ERK phosphorylation in HeLa cells (immunoblot); assay type: cell-based; settings: TNF-α 50 ng/mL, untransduced
Procedure: (A) Time-kinetics of TNF-α induced ERK activation. HeLa cells (3×10^6 per 100 mm dish) were serum starved for 6 h and were either left untreated or treated with TNF-α (50 ng/mL) for different time periods as indicated. Cell lysates were analyzed for phosphorylated ERK or total ERK by immunoblot. (B) Down-modulation of endogenous IG20-SVs in HeLa cells. One microgram of total RNA obtained from HeLa cells 48 h post-transduction was used for reverse-transcription-polymerase chain reaction. The products were separated on a 2% agarose gel. Amplification of all four IG20-SVs was done using F2-B2 primers. […] HeLa cells (3×10^6 per 100 mm dish) were either untransduced or transduced with different lentiviruses expressing SCR, Mid and 13L ShRNA for different time periods as indicated. At the end of each time period, the cells were serum starved for 6 h and were either left untreated or treated with TNF-α (50 ng/mL) for 15 min. Cell lysates were analyzed for phosphorylated ERK or total ERK by immunoblot. The data shown is representative of at least 3 independent experiments.
(A) HeLa cells (3×10^6 per 100 mm dish) were transduced with different lentiviruses expressing SCR, Mid and 16E ShRNA for 48 h. The cells were then serum starved for 6 h and were either left untreated or treated with TNF-α (50 ng/mL) for 15 min. Cell lysates were analyzed for phosphorylated ERK or total ERK by immunoblot. (B) PA-1 cells (5×10^6 per 100 mm dish) were transduced with different lentiviruses expressing SCR, Mid and 13L ShRNA for 48 h. The cells were then serum starved for 6 h and were either left unstimulated or stimulated with TNF-α (50 ng/mL) for 15 min. Cell lysates were analyzed for phosphorylated ERK or total ERK by immunoblot. […] Cell lysates were analyzed for phosphorylated ERK or total ERK by immunoblot. […]
To gain insight into the time kinetics of TNF-α induced ERK phosphorylation, HeLa cells were treated with TNF-α (50 ng/mL) for different time periods. […] Down-modulation of IG20 transcripts upon treatment with different ShRNA expressing lentiviruses was monitored by RT-PCR. […]

Substance | Association of exogenous MADD with DR4 (DR4) | In vitro phosphorylation by Akt (Akt) | Cell death upon enforced expression (HEK293 cells) | Time of maximum ERK phosphorylation (ERK1/2) [min]
wtMADD: recombinant wild-type MADD | can associate with DR4 | phosphorylated by Akt | could not induce cell death | –
MADD1041A: MADD mutant T1041A | – | reduced or absent | minimal effects on cell death | –
MADD70A: MADD mutant S70A | – | reduced or absent | minimal effects on cell death | –
MADD3A: MADD mutant, all three residues (S70, T173, T1041) converted to alanine | almost non-existant | – | significant cell death | –
MADD173A: MADD mutant T173A | – | reduced or absent | minimal effects on cell death | –
TNF-α [reference compound] | – | – | – | 15
